Results taken from patent US20220233555A1, “Improved administration of glycylcyclines by inhalation” (Stichting Radboud universitair medisch centrum, priority 2019, published 2022).

Key:
[1] = rat, in vivo; cited from earlier work
M. abscessus [2] = experiment: Intrapulmonary aerosol M. abscessus infection in GM-CSF KO mice, lung CFU determination; format: in vivo, Mycobacterium abscessus; conditions: for Log10 CFU count After 4 weeks: GM-CSF KO mice, lungs, 5 days a week for 4 weeks, at start 4.80, untreated 3.93
[3] = in vivo; cited from earlier work
[4] = tested on: M. abscessus and M. chelonae infections; conditions: cited from earlier work
[5] = in vivo, cited from earlier work
[6] = cited from earlier work
M. abscessus [7] = conditions: cited from earlier work

Question: For `CN(C)c1cc(NC(=O)CNC(C)(C)C)c(O)c2c1C[C@H]1C[C@H]3[C@H](N(C)C)C(O)=C(C(N)=O)C(=O)[C@@]3(O)C(O)=C1C2=O` [tigecycline], which penetration into tissues [1] is on record?
Answer: Its penetration into tissues is “good penetration into tissues”.

Question: What about the “bacterial colonies after culturing lung tissue” value (M. abscessus [2]; 2.5 mg cohorts, 9 out of 10 mice, 4 weeks) of the same compound?
Answer: The value was “no bacterial colonies were visible”.

Question: What about the “log 10 CFU count of the mouse with incomplete response” value (M. abscessus [2]; 2.5 mg cohorts, one mouse with abscess formation, 4 weeks) of the same compound?
Answer: The value was 0.5 log 10 CFU.

Question: And the “Log10 CFU count After 4 weeks” value (M. abscessus [2]; inhaled 0.25 mg/dose)?
Answer: The value was 3.28 Log10 CFU.

Question: And the “Log10 CFU count After 4 weeks” value (M. abscessus [2]; inhaled 1.25 mg/dose)?
Answer: The value was 0.695 Log10 CFU.

Question: And the “Log10 CFU count After 4 weeks” value (M. abscessus [2]; inhaled 2.5 mg/dose)?
Answer: The value was 0.50 Log10 CFU.

Question: And the “dose at which gastrointestinal adverse events were dose limiting” value [3]?
Answer: The value was 300 mg.

Question: And the “nausea, share of tigecycline recipients” value [3]?
Answer: Its value is 48.5%.

Question: And the “vomiting, share of tigecycline recipients” value [3]?
Answer: Its value is 29.4%.

Question: What about the “cases with adverse events reported” value ([4]; human, in vivo, iv) of the same compound?
Answer: Its value is “about 90%”.

Question: And the “patients with serious adverse events” value ([4]; human, in vivo, iv)?
Answer: Its value is 29 out of 52.

Question: And the “patients who stopped tigecycline therapy early because of adverse events” value ([4]; human, in vivo)?
Answer: The value was 27%.

Question: What about the patients with improvement ([4]; intravenous 100 mg then 50 mg every 12 h, part of a multidrug regimen) of the same compound?
Answer: Its patients with improvement is “about 60%”.

Question: What about the half-life ([5]; human) of the same compound?
Answer: The half-life was 36 h.

Question: What about the “excreted unchanged in the urine” value [5] of the same compound?
Answer: The value was “not more than 15%”.

Question: What about the volume of distribution [5] of the same compound?
Answer: The volume of distribution was > 10 L/kg.

Question: And the Protein binding [6]?
Answer: The Protein binding was “approximately 68%”.

Question: What about the “log kill of M. abscessus” value (M. abscessus [7]; at 200 mg/day, short-term inhibitory effect) of the same compound?
Answer: The value was 1 log kill.

Question: What about the maximum microbial kill (M. abscessus [7]; at higher doses) of the same compound?
Answer: Its maximum microbial kill is 1.37 log10 CFU/mL.
